These results are taken from US7300946B2, “N-(substituted arylmethyl)-4-(disubstituted methyl) piperidines and pyridines” (Bayer CropScience AG, priority 2002, dated 2007).

For this test, the system named is tobacco budworm (Heliothis virescens [Fabricius]). The experiment in a line: surface-treated diet test against the tobacco budworm. The note with it: tobacco budworm second instar larvae, 0.25 millimoles of candidate insecticide on the surface of the diet, five-day exposure; for Percent Mortality: compared to total number of insects infested; for Percent Growth Inhibition: inhibition of insect weight relative to untreated controls. It is filed as in vivo. The procedure, abridged: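 Wheat germ artificial diet surface-treated with 40 µL of 50 mM DMSO stock diluted 1:7 in 1:1 water/acetone (0.25 millimolar on diet), or sub-multiples for rate tests. One second-instar larva per well, 25° C, 60% RH, 5 days; percent weight inhibition vs DMSO controls and percent mortality.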

For the compound `O=C(Oc1ccccc1)OC(c1ccc(C(F)(F)F)cc1)C1CCN(Cc2ccc(Oc3ccccn3)cc2)CC1` (stereo not drawn) [Compound 661], for the setting “surface-treated diet”, the “Percent Mortality” value stood at 0% and the “Percent Growth Inhibition” value is recorded as 91%.

With `CCn1nnc(-c2ccc(CN3CCC(C(OC(=O)Nc4cc(C(F)(F)F)cc(C(F)(F)F)c4)c4ccc(C(F)(F)F)cc4)CC3)cc2)n1` (stereo not drawn) [Compound 293], for the setting “surface-treated diet”, the “Percent Mortality” value is reported as 17% and the “Percent Growth Inhibition” value came to 93%.

As for `CC(C)OC(=O)Nc1ccc(C[N+]2([O-])CCC(=C(c3ccc(C(F)(F)F)cc3)c3ccc(C(F)(F)F)cc3)CC2)cc1` (stereo not drawn) [Compound 103], where the note is “surface-treated diet”, the “Percent Mortality” value stood at 100% and the “Percent Growth Inhibition” value came to 100%.

With `CCCOc1ccc(CN2CCC(C(OC(=O)Nc3cc(F)cc(F)c3)c3cccc(C(F)(F)F)c3)CC2)cc1` (stereo not drawn) [Compound 487], under “surface-treated diet”, the “Percent Mortality” value is on record as 100% and the “Percent Growth Inhibition” value was determined as 100%.

Take `[O-][N+]1(Cc2ccc(Oc3ccc(Cl)cn3)cc2)CCC(=C(c2ccc(C(F)(F)F)cc2)c2ccc(C(F)(F)F)cc2)CC1` (stereo not drawn) [Compound 107]: under “surface-treated diet”, the “Percent Mortality” value is reported as 100% and the “Percent Growth Inhibition” value is reported as 100%.

Consider `O=C(Nc1ccc(C(F)(F)F)cc1)OC(c1cccc(C(F)(F)F)c1)C1CCN(Cc2ccc(Oc3ccccn3)cc2)CC1` (stereo not drawn) [Compound 656], for which, under “surface-treated diet”, the “Percent Mortality” value was determined as 100% and the “Percent Growth Inhibition” value was determined as 100%.

Take `O=C(Nc1ccc(Cl)cc1)OC(c1ccc(F)cc1)C1CCN(Cc2ccc(Oc3ncccn3)cc2)CC1` (stereo not drawn) [Compound 715]: the “Percent Mortality” value came out at 100% and the “Percent Growth Inhibition” value was determined as 100%.

Regarding `CCn1nnc(-c2ccc(CN3CCC(C(OC(=O)Nc4cccc(Br)c4)c4ccc(C(F)(F)F)cc4)CC3)cc2)n1` (stereo not drawn) [Compound 268], under “surface-treated diet”, the “Percent Mortality” value stood at 100% and the “Percent Growth Inhibition” value worked out at 100%.

As for `CCn1nnc(-c2ccc(CN3CCC(C(OC(=O)Nc4ccc(C(F)(F)F)cc4)c4cccc(F)c4)CC3)cc2)n1` (stereo not drawn) [Compound 587], where the note is “surface-treated diet”, the “Percent Mortality” value is listed as 100% and the “Percent Growth Inhibition” value was found to be 100%.

As to `Cn1nnc(-c2ccc(CN3CCC(C(NCc4ccccc4F)c4ccc(OC(F)(F)F)cc4)CC3)cc2)n1` (stereo not drawn) [Compound 313], for the setting “surface-treated diet”, the “Percent Mortality” value was 100% and the “Percent Growth Inhibition” value is 100%.

`Cc1cccc(CNC(=O)OC(c2ccc(C(F)(F)F)cc2)C2CCN(Cc3ccc(Oc4ccccn4)cc3)CC2)c1` (stereo not drawn) [Compound 694]: under “surface-treated diet”, the “Percent Mortality” value worked out at 50% and the “Percent Growth Inhibition” value was 100%.

Consider `CCCOc1ccc(CN2CCC(C(OC(=O)Nc3cc(F)cc(F)c3)c3ccc(Cl)cc3)CC2)cc1` (stereo not drawn) [Compound 474], for which, under “surface-treated diet”, the “Percent Mortality” value was found to be 100% and the “Percent Growth Inhibition” value amounted to 100%.

In the case of `CCn1nnc(-c2ccc(CN3CCC(C(OC(=O)Nc4ccccc4)c4ccc(OC(F)(F)F)cc4)CC3)cc2)n1` (stereo not drawn) [Compound 261], where the note is “surface-treated diet”, the “Percent Mortality” value amounted to 100% and the “Percent Growth Inhibition” value is reported as 100%.

In the case of `C#CCON=Cc1ccc(CN2CCC(C(OC(=O)Nc3ccc(Cl)cc3)c3ccc(C(F)(F)F)cc3)CC2)cc1` (stereo not drawn) [Compound 539], where the note is “surface-treated diet”, the “Percent Mortality” value is reported as 100% and the “Percent Growth Inhibition” value is given as 100%.

As to `O=C(Nc1cc(F)cc(F)c1)OC(c1ccc(C(F)(F)F)cc1)C1CCN(Cc2ccc(NC(=O)c3c(Cl)cccc3Cl)cc2)CC1` (stereo not drawn) [Compound 551], where the note is “surface-treated diet”, the “Percent Mortality” value was found to be 100% and the “Percent Growth Inhibition” value came out at 100%.

Consider `O=C(Nc1cc(F)cc(F)c1)OC(c1ccc(C(F)(F)F)cc1)C1CC[N+]([O-])(Cc2ccc(Oc3ncc(Cl)cc3Cl)cc2)CC1` (stereo not drawn) [Compound 758], for which the “Percent Mortality” value came to 100% and the “Percent Growth Inhibition” value amounted to 100%.

For the compound `O=C(Nc1cc(Cl)nc(Cl)c1)OC(c1ccc(C(F)(F)F)cc1)C1CCN(Cc2ccc(Oc3ccccn3)cc2)CC1` (stereo not drawn) [Compound 451], where the note is “surface-treated diet”, the “Percent Mortality” value came to 100% and the “Percent Growth Inhibition” value was 100%.

Consider `CC=CCOC(=O)Nc1ccc(CN2CCC(=C(c3ccc(C(F)(F)F)cc3)c3ccc(C(F)(F)F)cc3)CC2)cc1` [Compound 799], for which the “Percent Mortality” value amounted to 0% and the “Percent Growth Inhibition” value amounted to 83%.

Regarding `CCON=Cc1ccc(CN2CCC(C(OC(=O)Nc3cc(Cl)c(Cl)cc3Cl)c3ccc(C(F)(F)F)cc3)CC2)cc1` (stereo not drawn) [Compound 192], for the setting “surface-treated diet”, the “Percent Mortality” value is 67% and the “Percent Growth Inhibition” value was found to be 98%.

With `O=C(Nc1ccc(F)cc1)OC(c1ccc(C(F)(F)F)cc1)C1CCN(Cc2ccc(-n3cncn3)cc2)CC1` (stereo not drawn) [Compound 557], under “surface-treated diet”, the “Percent Mortality” value is reported as 0% and the “Percent Growth Inhibition” value is 86%.

Take `O=C(Nc1cc(F)cc(F)c1)OC(c1ccc(C(F)(F)F)cc1)C1CCN(Cc2ccc(-c3csnn3)cc2)CC1` (stereo not drawn) [Compound 560]: under “surface-treated diet”, the “Percent Mortality” value is reported as 33% and the “Percent Growth Inhibition” value is 96%.

In the case of `O=C(Nc1cc(F)cc(F)c1)OC(c1ccc(C(F)(F)F)cc1)C1CCN(Cc2ccc(Oc3cccc[n+]3[O-])cc2)CC1` (stereo not drawn) [Compound 682], for the setting “surface-treated diet”, the “Percent Mortality” value is recorded as 100% and the “Percent Growth Inhibition” value amounted to 100%.

Turning to `CCn1nnc(-c2ccc(CN3CCC(C(OC(=O)Nc4cccc(C(F)(F)F)c4)c4ccc(OC)cc4)CC3)cc2)n1` (stereo not drawn) [Compound 605], under “surface-treated diet”, the “Percent Mortality” value came to 100% and the “Percent Growth Inhibition” value worked out at 100%.

Regarding `O=C(Nc1cccc(C(F)(F)F)c1)OC(c1ccc(C(F)(F)F)cc1)C1CCN(Cc2ccc(Oc3ccccn3)cc2)CC1` (stereo not drawn) [Compound 244], where the note is “surface-treated diet”, the “Percent Mortality” value stood at 100% and the “Percent Growth Inhibition” value came to 100%.

In the case of `COc1ccc(CN2CCC(=C(c3ccc(OC(F)(F)F)cc3)c3ccc(OC(F)(F)F)cc3)CC2)cc1` [Compound 42], under “surface-treated diet”, the “Percent Mortality” value was determined as 100% and the “Percent Growth Inhibition” value is listed as 100%.

Regarding `CCON=Cc1ccc(CN2CCC(=C(c3ccc(C(F)(F)F)cc3)c3ccc(C(F)(F)F)cc3)CC2)cc1` [Compound 60], for the setting “surface-treated diet”, the “Percent Mortality” value is reported as 100% and the “Percent Growth Inhibition” value is listed as 100%.

As to `O=C(Nc1ccc(Cl)cc1)OC(c1ccc(F)cc1)C1CCN(Cc2ccc(Oc3ccccn3)cc2)CC1` (stereo not drawn) [Compound 639], where the note is “surface-treated diet”, the “Percent Mortality” value is given as 100% and the “Percent Growth Inhibition” value is recorded as 100%.

Take `O=C(Nc1cc(F)cc(F)c1)OC(c1ccc(C(F)(F)F)cc1)C1CCN(Cc2ccc(OCc3ccccc3)cc2)CC1` (stereo not drawn) [Compound 549]: where the note is “surface-treated diet”, the “Percent Mortality” value is reported as 0% and the “Percent Growth Inhibition” value is on record as 98%.

For `FC(F)(F)c1ccc(NC(=S)OC(c2ccc(C(F)(F)F)cc2)C2CCN(Cc3ccc(Oc4ccccn4)cc3)CC2)cc1` (stereo not drawn) [Compound 693], where the note is “surface-treated diet”, the “Percent Mortality” value came to 100% and the “Percent Growth Inhibition” value came out at 100%.

Regarding `CCON=Cc1ccc(CN2CCC(C(OC(=O)Nc3ccc(Br)cc3C(F)(F)F)c3ccc(C(F)(F)F)cc3)CC2)cc1` (stereo not drawn) [Compound 208], where the note is “surface-treated diet”, the “Percent Mortality” value is 100% and the “Percent Growth Inhibition” value is 100%.

For `O=C(Nc1cc(F)cc(F)c1)OC(c1ccc(C(F)(F)F)cc1)C1CCN(Cc2ccc(Oc3ncncn3)cc2)CC1` (stereo not drawn) [Compound 739], the “Percent Mortality” value worked out at 0% and the “Percent Growth Inhibition” value turned out to be 100%.

Regarding `CCON=Cc1ccc(CN2CCC(C(OC(=O)Nc3ccc(OC)cc3)c3ccc(C(F)(F)F)cc3)CC2)cc1` (stereo not drawn) [Compound 209], for the setting “surface-treated diet”, the “Percent Mortality” value is recorded as 100% and the “Percent Growth Inhibition” value is recorded as 100%.

As to `Clc1ccc(C(=C2CCN(Cc3ccc(Oc4ncccn4)cc3)CC2)c2ccc(Cl)cc2)cc1` [Compound 812], the “Percent Mortality” value was 100% and the “Percent Growth Inhibition” value is listed as 100%.

For `O=C(Nc1ccc(Cl)cc1)OC(c1ccc(OC(F)(F)F)cc1)C1CCN(Cc2ccc(Oc3ncccn3)cc2)CC1` (stereo not drawn) [Compound 733], the “Percent Mortality” value was 100% and the “Percent Growth Inhibition” value is 100%.

On to `N#Cc1cccnc1Oc1ccc(CN2CCC(C(OC(=O)Nc3ccc(Cl)cc3)c3ccc(OC(F)(F)F)cc3)CC2)cc1` (stereo not drawn) [Compound 707], for which the “Percent Mortality” value worked out at 100% and the “Percent Growth Inhibition” value stood at 100%.

As for `O=C(Nc1ccc(CN2CCC(=C(c3ccc(C(F)(F)F)cc3)c3ccc(C(F)(F)F)cc3)CC2)cc1)C(F)(F)F` [Compound 53], for the setting “surface-treated diet”, the “Percent Mortality” value was found to be 0% and the “Percent Growth Inhibition” value came to 100%.

For the compound `N#Cc1ccc(NC(=O)OC(c2ccc(C(F)(F)F)cc2)C2CCN(Cc3ccc(Oc4ccccn4)cc3)CC2)cc1` (stereo not drawn) [Compound 704], the “Percent Mortality” value stood at 100% and the “Percent Growth Inhibition” value turned out to be 100%.

Regarding `O=C(Nc1ccc(Cl)cc1)OC(c1cc(Cl)cc(Cl)c1)C1CCN(Cc2ccc(Oc3ncccn3)cc2)CC1` (stereo not drawn) [Compound 726], the “Percent Mortality” value worked out at 100% and the “Percent Growth Inhibition” value is reported as 100%.

Turning to `Clc1ccc(C(=C2CCN(Cc3ccc(Oc4ncccn4)cc3)CC2)c2ccc(Cl)c(Cl)c2)cc1Cl` [Compound 813], the “Percent Mortality” value worked out at 100% and the “Percent Growth Inhibition” value was found to be 100%.

For `O=C(Nc1cc(F)cc(F)c1)OC(c1ccc(C(F)(F)F)cc1)C1CC[N+]([O-])(Cc2ccc(Oc3ncccn3)cc2)CC1` (stereo not drawn) [Compound 765], the “Percent Mortality” value was found to be 100% and the “Percent Growth Inhibition” value came out at 100%.

In the case of `COc1ccc(NC(=O)OC(c2ccc(C(F)(F)F)cc2)C2CCN(Cc3ccc(Oc4ccccn4)cc3)CC2)cc1Cl` (stereo not drawn) [Compound 699], where the note is “surface-treated diet”, the “Percent Mortality” value was determined as 100% and the “Percent Growth Inhibition” value was found to be 100%.

Consider `N#Cc1ccc(NC(=O)OC(c2ccc(C(F)(F)F)cc2)C2CCN(Cc3ccc(Oc4ccccn4)cc3)CC2)cn1` (stereo not drawn) [Compound 446], for which, under “surface-treated diet”, the “Percent Mortality” value came out at 17% and the “Percent Growth Inhibition” value stood at 100%.
